Measured values published in ChEMBL document CHEMBL4261630.

Molecular target: Sialidase (Vibrio cholerae serotype O1 (strain ATCC 39315 / El Tor Inaba N16961), UniProt P0C6E9)
Assay: Inhibition of Vibrio cholerae sialidase using Neu5Acalpha2-3GalbetapNP as substrate after 30 mins by colorimetric assay
Conditions: not given

Sequence of Sialidase (P0C6E9 whole entry, one chain of several): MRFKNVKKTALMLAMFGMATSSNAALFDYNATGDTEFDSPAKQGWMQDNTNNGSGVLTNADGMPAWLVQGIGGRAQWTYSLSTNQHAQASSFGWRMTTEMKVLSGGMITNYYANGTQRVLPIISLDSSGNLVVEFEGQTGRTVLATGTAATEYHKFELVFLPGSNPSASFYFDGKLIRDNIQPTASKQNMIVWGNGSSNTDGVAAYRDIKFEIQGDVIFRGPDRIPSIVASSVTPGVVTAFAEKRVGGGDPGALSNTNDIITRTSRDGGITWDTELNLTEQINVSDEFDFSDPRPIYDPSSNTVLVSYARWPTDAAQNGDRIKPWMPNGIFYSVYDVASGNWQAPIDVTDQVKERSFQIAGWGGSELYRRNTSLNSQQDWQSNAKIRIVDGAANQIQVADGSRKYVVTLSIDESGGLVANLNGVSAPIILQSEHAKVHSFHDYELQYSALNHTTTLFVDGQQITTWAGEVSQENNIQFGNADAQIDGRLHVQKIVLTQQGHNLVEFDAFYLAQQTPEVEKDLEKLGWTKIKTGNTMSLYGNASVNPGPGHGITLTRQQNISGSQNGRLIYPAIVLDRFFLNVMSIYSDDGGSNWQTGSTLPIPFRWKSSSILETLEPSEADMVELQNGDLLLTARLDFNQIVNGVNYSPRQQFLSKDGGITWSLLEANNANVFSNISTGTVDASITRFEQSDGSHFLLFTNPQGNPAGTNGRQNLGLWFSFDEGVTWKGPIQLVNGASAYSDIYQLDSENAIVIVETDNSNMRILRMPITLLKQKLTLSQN

Compound | IC50
CC(=O)N[C@H]1[C@H]([C@H](O)[C@H](O)CN=[N+]=[N-])OC(C(=O)O)=C[C@@H]1O | 20 µM
CC(=O)N[C@H]1[C@H]([C@H](O)[C@H](O)Cn2cc(C[C@H](N)C(=O)O)nn2)OC(C(=O)O)=C[C@@H]1O | 13.5 µM

Molecular target: T1, Sialidase B (Streptococcus pneumoniae serotype 4 (strain ATCC BAA-334 / TIGR4)) (UniProt Q54727)
T1 sequence (whole entry): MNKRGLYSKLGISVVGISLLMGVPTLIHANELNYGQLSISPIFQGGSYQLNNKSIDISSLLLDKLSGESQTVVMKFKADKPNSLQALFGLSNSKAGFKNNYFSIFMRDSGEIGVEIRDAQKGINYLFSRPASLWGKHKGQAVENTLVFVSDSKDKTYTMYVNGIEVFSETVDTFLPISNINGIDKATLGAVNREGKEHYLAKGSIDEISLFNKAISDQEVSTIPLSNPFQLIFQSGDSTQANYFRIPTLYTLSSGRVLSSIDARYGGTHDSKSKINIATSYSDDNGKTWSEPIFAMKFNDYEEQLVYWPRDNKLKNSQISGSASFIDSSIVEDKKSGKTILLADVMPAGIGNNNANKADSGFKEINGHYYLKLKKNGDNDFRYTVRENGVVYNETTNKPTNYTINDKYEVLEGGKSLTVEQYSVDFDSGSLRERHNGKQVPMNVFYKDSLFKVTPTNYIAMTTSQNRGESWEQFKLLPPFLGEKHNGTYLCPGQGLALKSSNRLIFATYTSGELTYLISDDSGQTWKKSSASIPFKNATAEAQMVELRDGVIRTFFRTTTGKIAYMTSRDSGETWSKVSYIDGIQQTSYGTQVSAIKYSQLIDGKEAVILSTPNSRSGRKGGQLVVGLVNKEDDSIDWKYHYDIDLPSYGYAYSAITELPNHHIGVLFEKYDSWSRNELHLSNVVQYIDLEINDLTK
Conditions: at 1 mM

Compound | inhibition
CC(=O)N[C@H]1[C@H]([C@H](O)[C@H](O)CN=[N+]=[N-])OC(C(=O)O)=C[C@@H]1O | 35.2%
CC(=O)N[C@H]1[C@H]([C@H](O)[C@H](O)Cn2cc(C[C@H](N)C(=O)O)nn2)OC(C(=O)O)=C[C@@H]1O | 35.5%

Molecular target: not listed separately
Assay: Inhibition of Pasteurella multocida sialyltransferase 1 using Neu5Acalpha2-3GalbetapNP as substrate after 30 mins by colorimetric assay
Conditions: not given

Compound | IC50
CC(=O)N[C@H]1[C@H]([C@H](O)[C@H](O)CN=[N+]=[N-])OC(C(=O)O)=C[C@@H]1O | > 1000 µM
CC(=O)N[C@H]1[C@H]([C@H](O)[C@H](O)Cn2cc(C[C@H](N)C(=O)O)nn2)OC(C(=O)O)=C[C@@H]1O | > 1000 µM

Molecular target: Sialidase A (Streptococcus pneumoniae) (UniProt P62575)
Sequence (P62575 whole entry): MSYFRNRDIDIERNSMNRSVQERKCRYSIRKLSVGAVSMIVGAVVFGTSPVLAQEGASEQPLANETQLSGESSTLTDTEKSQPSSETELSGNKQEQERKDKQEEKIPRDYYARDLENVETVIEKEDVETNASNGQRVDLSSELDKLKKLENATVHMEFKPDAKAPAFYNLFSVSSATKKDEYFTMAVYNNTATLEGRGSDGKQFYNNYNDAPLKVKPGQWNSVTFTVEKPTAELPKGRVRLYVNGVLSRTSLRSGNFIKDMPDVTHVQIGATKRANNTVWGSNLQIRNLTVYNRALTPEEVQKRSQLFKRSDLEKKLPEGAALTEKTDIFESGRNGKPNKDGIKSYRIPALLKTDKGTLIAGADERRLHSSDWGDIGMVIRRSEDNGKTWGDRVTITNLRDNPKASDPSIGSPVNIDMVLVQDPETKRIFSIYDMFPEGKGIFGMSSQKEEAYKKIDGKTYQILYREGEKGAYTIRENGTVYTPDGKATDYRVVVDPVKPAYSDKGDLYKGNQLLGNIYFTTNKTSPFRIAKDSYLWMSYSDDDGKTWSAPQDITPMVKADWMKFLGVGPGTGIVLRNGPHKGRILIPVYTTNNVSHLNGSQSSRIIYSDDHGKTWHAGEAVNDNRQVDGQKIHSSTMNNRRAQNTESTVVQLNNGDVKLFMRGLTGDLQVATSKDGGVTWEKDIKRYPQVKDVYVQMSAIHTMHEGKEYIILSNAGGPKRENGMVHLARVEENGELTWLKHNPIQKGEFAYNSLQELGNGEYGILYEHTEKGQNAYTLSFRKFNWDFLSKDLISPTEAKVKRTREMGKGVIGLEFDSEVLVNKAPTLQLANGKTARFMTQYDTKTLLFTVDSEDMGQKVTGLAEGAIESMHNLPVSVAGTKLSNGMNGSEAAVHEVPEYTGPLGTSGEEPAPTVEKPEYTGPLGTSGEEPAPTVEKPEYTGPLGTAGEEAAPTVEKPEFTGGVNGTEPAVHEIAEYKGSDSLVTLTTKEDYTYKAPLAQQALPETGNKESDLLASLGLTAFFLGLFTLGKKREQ
Conditions: at 1 mM

Compound | inhibition
CC(=O)N[C@H]1[C@H]([C@H](O)[C@H](O)CN=[N+]=[N-])OC(C(=O)O)=C[C@@H]1O | 98.8%
CC(=O)N[C@H]1[C@H]([C@H](O)[C@H](O)Cn2cc(C[C@H](N)C(=O)O)nn2)OC(C(=O)O)=C[C@@H]1O | 84.4%

System: Paenarthrobacter ureafaciens
Conditions: at 0.1 mM

Compound | inhibition
CC(=O)N[C@H]1[C@H]([C@H](O)[C@H](O)CN=[N+]=[N-])OC(C(=O)O)=C[C@@H]1O | 99.2%
CC(=O)N[C@H]1[C@H]([C@H](O)[C@H](O)Cn2cc(C[C@H](N)C(=O)O)nn2)OC(C(=O)O)=C[C@@H]1O | 42.1%

System: Paenarthrobacter ureafaciens
Conditions: at 1 mM

Compound | inhibition
CC(=O)N[C@H]1[C@H]([C@H](O)[C@H](O)CN=[N+]=[N-])OC(C(=O)O)=C[C@@H]1O | 99.5%
CC(=O)N[C@H]1[C@H]([C@H](O)[C@H](O)Cn2cc(C[C@H](N)C(=O)O)nn2)OC(C(=O)O)=C[C@@H]1O | 85.6%

Molecular target: not listed separately
Assay: Inhibition of Arthrobacter ureafaciens sialidase using Neu5Acalpha2-3GalbetapNP as substrate after 30 mins by colorimetric assay
Design: species or system Paenarthrobacter ureafaciens
Conditions: not given

Compound | IC50
CC(=O)N[C@H]1[C@H]([C@H](O)[C@H](O)CN=[N+]=[N-])OC(C(=O)O)=C[C@@H]1O | 0.72 µM

Molecular target: Sialidase (Vibrio cholerae serotype O1 (strain ATCC 39315 / El Tor Inaba N16961)) (UniProt P0C6E9)
Sequence (P0C6E9 whole entry, one chain of several): as the sequence (P0C6E9 whole entry, one chain of several) above
Conditions: at 0.1 mM

Compound | inhibition
CC(=O)N[C@H]1[C@H]([C@H](O)[C@H](O)CN=[N+]=[N-])OC(C(=O)O)=C[C@@H]1O | 86%
CC(=O)N[C@H]1[C@H]([C@H](O)[C@H](O)Cn2cc(C[C@H](N)C(=O)O)nn2)OC(C(=O)O)=C[C@@H]1O | 82%

Molecular target: not listed separately
Assay: Inhibition of Bifidobacterium longum subsp. infantis ATCC 15697 sialidase 2 (BiNanH2) using Neu5Acalpha2-3GalbetapNP as substrate after 30 mins by colorimetric assay
Conditions: not given

Compound | IC50
CC(=O)N[C@H]1[C@H]([C@H](O)[C@H](O)CN=[N+]=[N-])OC(C(=O)O)=C[C@@H]1O | 100 to 1000 µM
CC(=O)N[C@H]1[C@H]([C@H](O)[C@H](O)Cn2cc(C[C@H](N)C(=O)O)nn2)OC(C(=O)O)=C[C@@H]1O | > 1000 µM

Molecular target: T2, Sialidase (Clostridium perfringens) (UniProt P10481)
T2 sequence (whole entry): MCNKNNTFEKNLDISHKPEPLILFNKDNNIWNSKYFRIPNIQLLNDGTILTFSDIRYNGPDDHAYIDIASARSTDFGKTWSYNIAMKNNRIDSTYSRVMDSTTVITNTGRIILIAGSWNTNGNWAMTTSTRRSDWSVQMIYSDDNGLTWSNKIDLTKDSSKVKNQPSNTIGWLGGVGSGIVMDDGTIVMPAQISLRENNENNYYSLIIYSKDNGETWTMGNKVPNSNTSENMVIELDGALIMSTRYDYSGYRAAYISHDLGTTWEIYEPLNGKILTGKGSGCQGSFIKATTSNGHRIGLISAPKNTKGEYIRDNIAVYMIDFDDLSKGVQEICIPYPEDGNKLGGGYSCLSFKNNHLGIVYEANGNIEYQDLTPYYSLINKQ
Conditions: at 0.1 mM

Compound | inhibition
CC(=O)N[C@H]1[C@H]([C@H](O)[C@H](O)CN=[N+]=[N-])OC(C(=O)O)=C[C@@H]1O | 57.1%
CC(=O)N[C@H]1[C@H]([C@H](O)[C@H](O)Cn2cc(C[C@H](N)C(=O)O)nn2)OC(C(=O)O)=C[C@@H]1O | 17.6%

System: Pasteurella multocida
Conditions: at 1 mM

Compound | inhibition
CC(=O)N[C@H]1[C@H]([C@H](O)[C@H](O)CN=[N+]=[N-])OC(C(=O)O)=C[C@@H]1O | 14.9%
CC(=O)N[C@H]1[C@H]([C@H](O)[C@H](O)Cn2cc(C[C@H](N)C(=O)O)nn2)OC(C(=O)O)=C[C@@H]1O | 9.1%

Molecular target: T3, Neuraminidase C (Streptococcus pneumoniae) (UniProt A0A0B7LH44)
T3 sequence (whole entry): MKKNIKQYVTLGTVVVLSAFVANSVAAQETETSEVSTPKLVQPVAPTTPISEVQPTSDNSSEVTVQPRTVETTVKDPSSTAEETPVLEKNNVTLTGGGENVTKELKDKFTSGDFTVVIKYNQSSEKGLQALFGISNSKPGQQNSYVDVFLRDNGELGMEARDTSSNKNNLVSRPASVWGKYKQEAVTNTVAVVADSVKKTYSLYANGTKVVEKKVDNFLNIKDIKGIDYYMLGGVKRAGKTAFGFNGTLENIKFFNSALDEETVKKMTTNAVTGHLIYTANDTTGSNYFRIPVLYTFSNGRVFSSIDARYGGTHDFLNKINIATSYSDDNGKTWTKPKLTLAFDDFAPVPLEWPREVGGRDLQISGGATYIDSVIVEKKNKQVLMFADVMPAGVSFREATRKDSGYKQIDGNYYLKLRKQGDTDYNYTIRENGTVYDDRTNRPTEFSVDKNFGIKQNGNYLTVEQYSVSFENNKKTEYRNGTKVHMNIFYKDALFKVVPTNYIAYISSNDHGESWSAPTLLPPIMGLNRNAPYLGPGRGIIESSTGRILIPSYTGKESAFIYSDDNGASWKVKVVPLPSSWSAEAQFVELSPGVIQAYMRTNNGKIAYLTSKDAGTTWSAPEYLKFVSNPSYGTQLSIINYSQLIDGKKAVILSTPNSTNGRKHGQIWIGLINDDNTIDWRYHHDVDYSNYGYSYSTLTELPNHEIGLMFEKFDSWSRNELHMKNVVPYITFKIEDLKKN
Conditions: at 0.1 mM

Compound | inhibition
CC(=O)N[C@H]1[C@H]([C@H](O)[C@H](O)CN=[N+]=[N-])OC(C(=O)O)=C[C@@H]1O | 13.4%
CC(=O)N[C@H]1[C@H]([C@H](O)[C@H](O)Cn2cc(C[C@H](N)C(=O)O)nn2)OC(C(=O)O)=C[C@@H]1O | 15.3%

Molecular target: T4, Neuraminidase C (Streptococcus pneumoniae, UniProt A0A0B7LH44)
T4 sequence (A0A0B7LH44 whole entry): T3 sequence (whole entry)
Assay: Inhibition of Streptococcus pneumoniae sialidase NanC using Neu5Acalpha2-3GalbetapNP as substrate after 30 mins by colorimetric assay
Conditions: not given

Compound | IC50
CC(=O)N[C@H]1[C@H]([C@H](O)[C@H](O)CN=[N+]=[N-])OC(C(=O)O)=C[C@@H]1O | > 1000 µM
CC(=O)N[C@H]1[C@H]([C@H](O)[C@H](O)Cn2cc(C[C@H](N)C(=O)O)nn2)OC(C(=O)O)=C[C@@H]1O | > 1000 µM

System: Pasteurella multocida
Conditions: at 0.1 mM

Compound | inhibition
CC(=O)N[C@H]1[C@H]([C@H](O)[C@H](O)CN=[N+]=[N-])OC(C(=O)O)=C[C@@H]1O | 1.7%
CC(=O)N[C@H]1[C@H]([C@H](O)[C@H](O)Cn2cc(C[C@H](N)C(=O)O)nn2)OC(C(=O)O)=C[C@@H]1O | 2.8%

Molecular target: T2, Sialidase (Clostridium perfringens)
Conditions: at 1 mM

Compound | inhibition
CC(=O)N[C@H]1[C@H]([C@H](O)[C@H](O)CN=[N+]=[N-])OC(C(=O)O)=C[C@@H]1O | 89.3%
CC(=O)N[C@H]1[C@H]([C@H](O)[C@H](O)Cn2cc(C[C@H](N)C(=O)O)nn2)OC(C(=O)O)=C[C@@H]1O | 69.7%

System: Bifidobacterium longum subsp. infantis
Conditions: ATCC 15697, at 0.1 mM

Compound | inhibition
CC(=O)N[C@H]1[C@H]([C@H](O)[C@H](O)CN=[N+]=[N-])OC(C(=O)O)=C[C@@H]1O | 49.4%
CC(=O)N[C@H]1[C@H]([C@H](O)[C@H](O)Cn2cc(C[C@H](N)C(=O)O)nn2)OC(C(=O)O)=C[C@@H]1O | 0%

Molecular target: T5, Sialidase B (Streptococcus pneumoniae serotype 4 (strain ATCC BAA-334 / TIGR4), UniProt Q54727)
T5 sequence (Q54727 whole entry): T1 sequence (whole entry)
Assay: Inhibition of Streptococcus pneumoniae NanB using Neu5Acalpha2-3GalbetapNP as substrate after 30 mins by colorimetric assay
Conditions: not given

Compound | IC50
CC(=O)N[C@H]1[C@H]([C@H](O)[C@H](O)CN=[N+]=[N-])OC(C(=O)O)=C[C@@H]1O | > 1000 µM
CC(=O)N[C@H]1[C@H]([C@H](O)[C@H](O)Cn2cc(C[C@H](N)C(=O)O)nn2)OC(C(=O)O)=C[C@@H]1O | > 1000 µM

Molecular target: T1, Sialidase B (Streptococcus pneumoniae serotype 4 (strain ATCC BAA-334 / TIGR4))
Conditions: at 0.1 mM

Compound | inhibition
CC(=O)N[C@H]1[C@H]([C@H](O)[C@H](O)CN=[N+]=[N-])OC(C(=O)O)=C[C@@H]1O | 6.6%
CC(=O)N[C@H]1[C@H]([C@H](O)[C@H](O)Cn2cc(C[C@H](N)C(=O)O)nn2)OC(C(=O)O)=C[C@@H]1O | 8.8%

Molecular target: Sialidase (Vibrio cholerae serotype O1 (strain ATCC 39315 / El Tor Inaba N16961)) (UniProt P0C6E9)
Conditions: at 1 mM

Compound | inhibition
CC(=O)N[C@H]1[C@H]([C@H](O)[C@H](O)CN=[N+]=[N-])OC(C(=O)O)=C[C@@H]1O | 95.6%
CC(=O)N[C@H]1[C@H]([C@H](O)[C@H](O)Cn2cc(C[C@H](N)C(=O)O)nn2)OC(C(=O)O)=C[C@@H]1O | 93.2%

System: Bifidobacterium longum subsp. infantis
Conditions: ATCC 15697, at 1 mM

Compound | inhibition
CC(=O)N[C@H]1[C@H]([C@H](O)[C@H](O)CN=[N+]=[N-])OC(C(=O)O)=C[C@@H]1O | 86.7%
CC(=O)N[C@H]1[C@H]([C@H](O)[C@H](O)Cn2cc(C[C@H](N)C(=O)O)nn2)OC(C(=O)O)=C[C@@H]1O | 14.7%

Molecular target: T3, Neuraminidase C (Streptococcus pneumoniae)
Conditions: at 1 mM

Compound | inhibition
CC(=O)N[C@H]1[C@H]([C@H](O)[C@H](O)CN=[N+]=[N-])OC(C(=O)O)=C[C@@H]1O | 39.2%
CC(=O)N[C@H]1[C@H]([C@H](O)[C@H](O)Cn2cc(C[C@H](N)C(=O)O)nn2)OC(C(=O)O)=C[C@@H]1O | 47.8%

Molecular target: Sialidase A (Streptococcus pneumoniae) (UniProt P62575)
Conditions: at 0.1 mM

Compound | inhibition
CC(=O)N[C@H]1[C@H]([C@H](O)[C@H](O)CN=[N+]=[N-])OC(C(=O)O)=C[C@@H]1O | 78.6%
CC(=O)N[C@H]1[C@H]([C@H](O)[C@H](O)Cn2cc(C[C@H](N)C(=O)O)nn2)OC(C(=O)O)=C[C@@H]1O | 42.9%

Molecular target: Sialidase A (Streptococcus pneumoniae, UniProt P62575)
Sequence (P62575 whole entry): as the sequence (P62575 whole entry) above
Assay: Inhibition of Streptococcus pneumoniae NanA using Neu5Acalpha2-3GalbetapNP as substrate after 30 mins by colorimetric assay
Conditions: not given

Compound | IC50
CC(=O)N[C@H]1[C@H]([C@H](O)[C@H](O)CN=[N+]=[N-])OC(C(=O)O)=C[C@@H]1O | 44.3 µM
CC(=O)N[C@H]1[C@H]([C@H](O)[C@H](O)Cn2cc(C[C@H](N)C(=O)O)nn2)OC(C(=O)O)=C[C@@H]1O | 100 to 1000 µM
